This data set is described as follows: Stability study (storage at 60° C. and 60° C. 75% RH, measured by HPLC). It counts as physicochemical. The following applies: for stability: stored at 60° C. and 60° C. 75% RH for 1 month, measured at 20 days and 1 month by HPLC. Further details: Stability Study Results (HPLC): unit not given here. The protocol: Each sample was stored at 60° C. and 60° C. 75% RH for 1 month. Each sample was measured at 20 days and 1 month by HPLC. HPLC conditions are described below.
Column: Waters XSelect CSH C18, 4.6×150 mm, 3.5 μm
MPA: 50 mM HClO4 in water (pH=3)
MPB: MeOH/acetonitrile (9:1)

Structures can show the parent of a compound that is named as a salt.

Results on eleven compounds are retold here after patent US11136304B2, “Salts of a heterocyclic compound and crystalline forms, processes for preparing, therapeutic uses, and pharmaceutical compositions thereof” (Sunovion Pharmaceuticals Inc., priority 2019, dated 2021).

For the compound `CNC[C@@H]1OCCc2cccc(F)c21` [freebase (amorphous) of Compound 1, (R)-1-(8-fluoroisochroman-1-yl)-N-methylmethanamine], the stability result is given as “unstable”.

`CNC[C@@H]1OCCc2cccc(F)c21.O=C(O)/C=C/C(=O)O` [Fumarate, (R)-1-(8-fluoroisochroman-1-yl)-N-methylmethanamine fumarate]: the stability entry is reported as “stable”.

On to `O=C(O)CC(O)(CC(=O)O)C(=O)O` [Citric acid], for which the “Stability Study Results (HPLC)” value reads like this: (1 month at 60° C.) 99.16; (1 month at 60° C. 75% RH) 97.73; (20 day at 60° C.) 99.10; (20 days at 60° C. 75% RH) 98.34; (Initial) 99.08.

Take `O=C(O)/C=C/C(=O)O` [Fumaric acid]: the “Stability Study Results (HPLC)” value was found to be 99.60 (1 month at 60° C.); 99.64 (1 month at 60° C. 75% RH); 99.54 (20 day at 60° C.); 99.67 (20 days at 60° C. 75% RH); 99.48 (Initial).

As for `Cl` [HCl], the “Stability Study Results (HPLC)” value runs as follows: (1 month at 60° C.) 98.89; (1 month at 60° C. 75% RH) 99.05; (20 day at 60° C.) 98.50; (20 days at 60° C. 75% RH) 99.07; (Initial) 98.94.

As to `CNC[C@@H]1OCCc2cccc(F)c21` [Phosphate, (R)-1-(8-fluoroisochroman-1-yl)-N-methylmethanamine phosphate], the stability result (phosphate) is “stable”.

For the compound `CNC[C@@H]1OCCc2cccc(F)c21.O=C(O)C(O)C(O)C(=O)O` [L-tartrate, (R)-1-(8-fluoroisochroman-1-yl)-N-methylmethanamine L-tartrate], the stability result was “stable”.

Take L-Tartaric: the “Stability Study Results (HPLC)” value is 99.14 (1 month at 60° C.); 99.23 (1 month at 60° C. 75% RH); 99.13 (20 day at 60° C.); 99.23 (20 days at 60° C. 75% RH); 99.10 (Initial).

As to `O=P(O)(O)O` [Compound H3PO4], the “Stability Study Results (HPLC)” value was 99.23 (1 month at 60° C.); 99.24 (1 month at 60° C. 75% RH); 99.20 (20 day at 60° C.); 99.20 (20 days at 60° C. 75% RH); 99.20 (Initial).

Regarding `CNC[C@@H]1OCCc2cccc(F)c21.O=C(O)CC(O)(CC(=O)O)C(=O)O` [citrate, (R)-1-(8-fluoroisochroman-1-yl)-N-methylmethanamine citrate], the stability entry is recorded as “stable”.

Turning to `CNC[C@@H]1OCCc2cccc(F)c21.Cl` [Hydrochloride, (R)-1-(8-fluoroisochroman-1-yl)-N-methylmethanamine hydrochloride], the stability result was “stable”.
